Six compounds from patent US12630571B2, “Crystal form of L-glufosinate and preparation method and use thereof” (JIANGSU SEVENCONTINENT GREEN TECHNOLOGY RESEARCH INSTITUTE …, priority 2022, dated 2026) can be followed below.

One data set in a line: Hygroscopicity test. The data set is classed as physicochemical. The note with it: 48 h; for Weight change (%): 100 g solid. On the procedure: Experimental scheme: 100 g of solids were placed under different humidity for 48 h, and re-measured whether there was a significant change in their quality, and visually inspected whether there was a significant change in their appearance, so as to determine whether the crystal form had hygroscopicity, and the specific results of the crystal forms A, B, and C were shown in Table 7, and the specific results of the crystal forms D and E were shown in Table 8.

A short description of the next data set: Stability test (storage). The data set is classed as physicochemical. The following applies: for Appearance (change after storage) / Crystal form (change after storage) / Weight change (%): humidity 65%; for stability (in words): compared with the crystal forms in CN111065270A. On the procedure: Experimental method: The crystal forms A, B, and C were stored at a temperature of 60° C. for 7 days, the crystal form changes were re-measured, and the specific results were shown in Table 9.
The crystals obtained in Embodiments 4-9 were stored for 48 days at 25° C. and 60° C., respectively, the crystal form changes were re-measured, and the specific results were shown in Table 10.

In a further data set the test system is Alopecurus aequalis. Kind of data set: Field efficacy experiment, plant control effect. The data set is classed as in vivo. The note with it: 10% aqueous solution, 120 mL/mu, 7 days after treatment. Here is the method:
(§1) The combination of preparation processing and field efficacy test was adopted below.
(§2) The above-mentioned formulations were prepared with the crystals of the embodiments of the present disclosure and the crystal form A in the patent CN111065270A respectively for field efficacy experiments. It was detected that the physical and chemical properties of the aqueous solution products prepared by each crystal form were stable and met the needs of production and use, and at the same time, field experiments were carried out on different weeds. The dosage was 120 mL/mu.
(§3) Referring to the “Pesticide-Guidelines for the field efficacy trials”, 5 sites were investigated in each plot, each site was 1 square meter, and the types of weeds, the total number of plants, the symptoms of poisoning, the number of dead plants, etc. were recorded for each treatment 7 days after the treatment, and then the results of the plant control effect were counted, and the weed mortality was calculated and counted specifically.

In a further data set the test system is Rumex. The experiment in a line: Field efficacy experiment, plant control effect. The following applies: 10% aqueous solution, 120 mL/mu, 7 days after treatment. The data set is classed as in vivo. Here is the method:
as §1, §2, §3

The subject of another data set is Euphorbia helioscopia. Kind of data set: Field efficacy experiment, plant control effect. The data set is classed as in vivo. The following applies: 10% aqueous solution, 120 mL/mu, 7 days after treatment. Here is the method: as §1, §2, §3
Another data set has as its system Bluegrass. The experiment in a line: Field efficacy experiment, plant control effect. The following applies: 10% aqueous solution, 120 mL/mu, 7 days after treatment. The data set is classed as in vivo. Here is the method: as §1, §2, §3
The nature of data set [1]: DSC heat absorption and decomposition temperatures (high temperature stability). The following applies: for Peak: DSC endothermic peak temperature; for Start of heat absorption: DSC. Type of data set: physicochemical. On the procedure: (§4) In the present application, the test instruments and conditions used in the experiment are as follows: • 1. The crystal form of the product was analyzed by X-ray powder diffractometer (XRD, Rigaku D/Max-2500 type, Cu Kα radiation, λKα=0.15406 nm), the emission voltage and current were 40 kV and 100 mA, respectively, and the scanning range was 2-40°, the scan step size was 0.02°, and the scan rate was 8°/min. • 2. Differential Scanning calorimetry (DSC) and Thermogravimetric Analysis (TGA): DSC and TGA analyses were performed using a TGA/DSC Model 1 instrument from Mettler Toledo. The DSC measurement method was as follows: take 5-10 mg of the sample into an aluminum crucible, put it into the instrument, set the nitrogen flow rate to 50 ml/min, 200 ml/min, and increase the temperature from 30° C. to 200° C. at a rate of 10° C./min, and analysis was performed using STAR software from Mettler Toledo. The TGA measurement method was as follows: take 5-10 mg of the sample into an aluminum crucible, put it into the instrument, set the nitrogen flow rate to 20 ml/min, 50 ml/min, and increase the temperature from 30° C. to 200° C. at a rate of 10° C./min, and analysis was performed using STAR software from Mettler Toledo.
For the crystal form A, crystal form B, crystal form D and crystal form E of L-glufosinate ammonium, the data comparison of its high temperature stability were shown in Table 6.

A short description of data set [2]: Thermogravimetric analysis (TGA). Type of data set: physicochemical. On the procedure:
as §4

Data set [3] deals with weeds such as Rumex, Alopecurus aequalis, Euphorbia helioscopia, and bluegrass. The experiment in a line: Field efficacy experiment, summary statements over all weeds. Type of data set: in vivo. The note with it: difference in plant control effect. Here is the method:
as §1, §2, §3

The mark [4] stands for this setting: listed as Crystal form B of Embodiment 2 of the present disclosure.
Where [5] appears, read: listed as Crystal form B of L-glufosinate ammonium.
[6] abbreviates: listed as Crystal form A of Embodiment 1 of the present disclosure.
The mark [7] stands for this setting: listed as Crystal form A of L-glufosinate ammonium.
Where [8] appears, read: listed as Crystal form E of Embodiment 5 of the present disclosure.
Where [9] appears, read: listed as Crystal form E of L-Glufosinate Ammonium.
Setting [10] is: listed as Crystal form E of L-glufosinate ammonium.
Where [11] appears, read: listed as Crystal form D of Embodiment 4 of the present disclosure.
Where [12] appears, read: listed as Crystal form D of L-Glufosinate Ammonium.
[13] abbreviates: listed as Crystal form D of L-glufosinate ammonium.

Turning to `CP(=O)(O)CC[C@H](N)C(=O)O` [Crystal form C, L-glufosinate], the “Weight change (%)” value in the data set “Hygroscopicity test” (20° C., humidity 65%) was “+0.02%”. The “Weight change (%)” value in “Hygroscopicity test” (20° C., humidity 80%) is “+1.54%”. In addition, in “Stability test (storage)” (60° C., 7 days), the “Appearance (change after storage)” value was “Unchanged” and the “Crystal form (change after storage)” value was “Unchanged”. Further, the “stability (in words)” value in the data set “Stability test (storage)” was “excellent stability”.
Consider `CP(=O)(O)CC[C@H](N)C(=O)O.N` [Crystal form B, L-glufosinate ammonium], for which the “Weight change (%)” value in “Hygroscopicity test” (20° C., humidity 65%, listed as B) is given as “+0.03%”. Besides, the “Weight change (%)” value in “Hygroscopicity test” (20° C., humidity 80%, listed as B) is “+1.55%”. In the data set with Alopecurus aequalis (setting [4]), the “Plant control effect (%) Alopecurus aequalis” value came out at 85%. For the same compound, the “Plant control effect (%) Rumex” value in the data set with Rumex stood at 100%. Also, the “Plant control effect (%) Euphorbia helioscopia” value in the data set on Euphorbia helioscopia (setting [4]) worked out at 80%. Moreover, the “Plant control effect (%) Bluegrass” value with Bluegrass (setting [4]) came out at 80%. In [1] (setting [5]), the Peak is on record as 134° ° C and the “Start of heat absorption” value came out at 125° ° C.
As to `CP(=O)(O)CC[C@H](N)C(=O)O.N` [Crystal form A, L-glufosinate ammonium], the “Weight change (%)” value in “Hygroscopicity test” (20° C., humidity 65%, listed as A) was “+0.02%”. The “Weight change (%)” value in the data set “Hygroscopicity test” (20° C., humidity 80%, listed as A) is on record as “+1.45%”. The “Plant control effect (%) Alopecurus aequalis” value with Alopecurus aequalis (setting [6]) came out at 80%. In addition, in the data set with Euphorbia helioscopia (setting [6]), the “Plant control effect (%) Euphorbia helioscopia” value is 80%. The “Plant control effect (%) Bluegrass” value with Bluegrass (setting [6]) is 80%. In the data set “Stability test (storage)” (60° C., 7 days), the “Appearance (change after storage)” value is given as “Unchanged” and the “Crystal form (change after storage)” value was “Unchanged”. In addition, the “stability (in words)” value in “Stability test (storage)” is reported as “excellent stability”. In addition, in [1] (setting [7]), the Peak is 129° ° C and the “Start of heat absorption” value was 110° ° C. Besides, in [1] (versus the ammonium salt crystal forms in the existing patent), the “high temperature stability (in words)” value was “better high temperature stability”.
As to `CP(=O)(O)CCC(N)C(=O)O.N` (stereo not drawn) [Crystal form in CN113831364A, reference compound], in data set [1], the “Start of heat absorption” value came out at 104° ° C and the Peak is recorded as 115° ° C.
For `CP(=O)(O)CC[C@H](N)C(=O)O.N` [Crystal form E, L-glufosinate ammonium], the “Weight change (%)” value in the data set “Hygroscopicity test” (25° C., humidity 65%, listed as Embodiment 5) is given as “+0.02%”; in “Hygroscopicity test” (25° C., humidity 65%, listed as Embodiment 8), “+0.02%”; in “Hygroscopicity test” (25° C., humidity 65%, listed as Embodiment 9), “+0.02%”; in “Hygroscopicity test” (25° C., humidity 80%, listed as Embodiment 5) it was “+1.23%”; in “Hygroscopicity test” (25° C., humidity 80%, listed as Embodiment 8), “+1.15%”; in “Hygroscopicity test” (25° C., humidity 80%, listed as Embodiment 9) it was “+1.18%”. Besides, the “Weight change (%)” value was “+0.02%” in the data set “Stability test (storage)” (25° C., 48 days, listed as Embodiment 5); “+0.02%” in the data set “Stability test (storage)” (25° C., 48 days, listed as Embodiment 8); “+0.02%” in the data set “Stability test (storage)” (25° C., 48 days, listed as Embodiment 9); “+0.01%” in the data set “Stability test (storage)” (60° C., 48 days, listed as Embodiment 5); “+0.02%” in the data set “Stability test (storage)” (60° C., 48 days, listed as Embodiment 8); “+0.02%” in “Stability test (storage)” (60° C., 48 days, listed as Embodiment 9). The “Plant control effect (%) Alopecurus aequalis” value with Alopecurus aequalis (setting [8]) was 85%. In addition, the “Plant control effect (%) Euphorbia helioscopia” value with Euphorbia helioscopia (setting [8]) is recorded as 90%. In addition, in the data set on Bluegrass (setting [8]), the “Plant control effect (%) Bluegrass” value stood at 85%. In [2] (setting [9]), the “temperature below which the weight of the crystal was basically unchanged” value came out at 95.5 °C. In addition, in data set [2] (setting [9]), the “temperature from which weight decreased rapidly (decomposition)” value worked out at 226.5 °C. Moreover, the “temperature from which weight started to decrease slowly (release of ammonia gas)” value in data set [2] (setting [9]) was 147 °C. The slow weight decrease in data set [2] (starting at 95.5° C.) was determined as 1.2%. Besides, the “Appearance (change after storage)” value in “Stability test (storage)” (25° C., 48 days) was “Unchanged”. The “Crystal form (change after storage)” value in the data set “Stability test (storage)” (25° C., 48 days) is recorded as “Unchanged”. The compound further registered a Peak in data set [1] (setting [10]) of 185.833° ° C. For the same compound, the “Start of heat absorption” value in data set [1] (setting [10]) amounted to 147° ° C.
Turning to `CP(=O)(O)CC[C@H](N)C(=O)O.N` [Crystal form D, L-glufosinate ammonium], the Appearance change result was “Unchanged” in “Hygroscopicity test” (25° C., humidity 65%) and “Unchanged” in the data set “Hygroscopicity test” (25° C., humidity 80%). The “Weight change (%)” value in “Hygroscopicity test” (25° C., humidity 65%, listed as Embodiment 4) is “+0.03%”; in “Hygroscopicity test” (25° C., humidity 65%, listed as Embodiment 6), “+0.03%”; in “Hygroscopicity test” (25° C., humidity 65%, listed as Embodiment 7), “+0.01%”; in the data set “Hygroscopicity test” (25° C., humidity 80%, listed as Embodiment 4) it was “+1.12%”; in “Hygroscopicity test” (25° C., humidity 80%, listed as Embodiment 6), “+1.17%”; in “Hygroscopicity test” (25° C., humidity 80%, listed as Embodiment 7), “+1.12%”. Besides, the “Weight change (%)” value is “+0.03%” in the data set “Stability test (storage)” (25° C., 48 days, listed as Embodiment 4); “+0.03%” in “Stability test (storage)” (25° C., 48 days, listed as Embodiment 6); “+0.01%” in “Stability test (storage)” (25° C., 48 days, listed as Embodiment 7); “+0.02%” in “Stability test (storage)” (60° C., 48 days, listed as Embodiment 4); “+0.02%” in the data set “Stability test (storage)” (60° C., 48 days, listed as Embodiment 6); “+0.01%” in the data set “Stability test (storage)” (60° C., 48 days, listed as Embodiment 7). Besides, the “Plant control effect (%) Alopecurus aequalis” value in the data set on Alopecurus aequalis (setting [11]) was 86%. In addition, in the data set on Euphorbia helioscopia (setting [11]), the “Plant control effect (%) Euphorbia helioscopia” value was found to be 85%. Also, the “Plant control effect (%) Bluegrass” value in the data set on Bluegrass (setting [11]) was found to be 85%. Besides, the “efficacy higher than other crystal forms of the ammonium salt” value in data set [3] was “about 5%”. Further, the “temperature below which the weight of the crystal was basically unchanged” value in data set [2] (setting [12]) is 139.5 °C. In data set [2] (setting [12]), the “temperature from which weight decreased rapidly (decomposition)” value stood at 206.5 °C. Besides, the “temperature from which weight started to decrease slowly (release of ammonia gas)” value in data set [2] (setting [12]) was determined as 139.5 °C. The “Appearance (change after storage)” value in “Stability test (storage)” (60° C., 48 days) was “Unchanged”. The “Crystal form (change after storage)” value in the data set “Stability test (storage)” (60° C., 48 days) is given as “Unchanged”. Also, the “storage stability (in words)” value in the data set “Stability test (storage)” (at 25° C. and 60° C.) is “excellent storage stability”. This compound also displayed a Peak in data set [1] (setting [13]) of 179.83° ° C. Further, the “Start of heat absorption” value in data set [1] (setting [13]) stood at 161.84° ° C.
